The text below walks through data of US20250127863A1, “ANTIMICROBIAL PEPTIDE FOR ONYCHOMYCOSIS” (CBMR SCIENTIFIC NANOSCIENCE B.V., priority 2019, published 2025).

No end group written: not given here.

The test system of experiment [1] is Sclerotinia sclerotiorum. Put plainly: IC50 growth inhibition. Type of experiment: cell-based.
For experiment [2], the system named is Candida parapsilosis. Type of experiment: cell-based. How it is done:
The minimum inhibitory concentration (MIC) value is defined as the lowest sample concentration that inhibited growth. In the Examples, the MIC90 value is presented, which MIC90 values are determined according to established methods known to the person with the skills in the relevant art. Experiments; 1×10E5 CFU of various strains/ml were incubated for 24-48 h at 37° C. in 4× diluted medium of RPMI 1640 with the indicated concentrations of antimicrobial peptide hLF(1-11) [SEQ ID NO: 3]. As controls various strains cells were incubated for 24-48 h at 37° C. with no agent (antimicrobial peptide), and subsequently, growth of the microbial organism (e.g. yeast, bacterium) was monitored by using spectrophotometry with a spectrophotometer at 620 nm. […] ND=Not done. Representative single assay data are listed rather than a range, for clarity reasons and for ease of comparison of peptide efficacy. The MIC was calculated as the lowest antibiotic (antimicrobial peptide) concentration at which growth of the assessed yeast or bacterium (microbe) was inhibited (inhibitory concentration IC90).
For 3 patients A, B, C who were treated with the low concentration of antimicrobial peptide, and for which now clinical improvement was established, it was established that one patient presented with a positive culture (Candida parapsilosis). […] See also Tables 1-3 in Example 4, here below. […]

In experiment [3] the test system is onychomycosis. Put plainly: Clinical study for treating onychomycosis (Example 2). It is filed as in vivo, human. As to conditions: twice per day. Here is the method:
A peptide solution was tested for its treatment effect on onychomycosis in human subjects. The peptide was antimicrobial peptide hLF1-11 (GRRRRSVQWCA) [SEQ ID NO: 3] in water comprising 0.01% by volume acetic acid, based on the total volume of the peptide solution.
Forty two patients are treated with the peptide solution; 20 patients (4 male/16 female) were treated with a solution comprising a low concentration of 3 mg/L of the peptide (dose twice per day), 10 patients (3 male/7 female) were treated with the peptide solution with a high concentration of 30 mg/L of the peptide (dose twice per day) and 12 patients (8 male/4 female) with a combination of high and low concentration (4 weeks 30 mg/L following by 3 mg/L continuing treatment, dose twice per day).
Patients were categorized into groups based on their skin and nail disorders (visible inspection by independent pedicure); low to mild fungal nail problems (treatment group with 3 mg/L for patients in this group), mild to severe fungal nail problems (combination group 30 mg/L-3 mg/L) and highly infected onychomycosis (30 mg/L group).
Results: 90% of the patients observed an improvement in the appearance of the nail after 2 weeks, 92% observed improvement after 4-10 weeks of treatment. Complete recovery was visible for >98% of the patients after 24 weeks. No exclusions were made. Some patients with severe infections (diabetic/autoimmune related) in the high/low combination treatment group were treated longer with the peptide at high dose. All patients continued the treatment as long as it takes to recover completely from the fungal nail infection (in general, relating to the outgrowth of a complete new nail). Duration of the trial was 6-12 months (depending on the infection and the outgrowth of the nail).

Experiment [4] deals with Trichoderma viride. Nature of the experiment: IC50 growth inhibition. Type of experiment: cell-based.

With “GRRRRSVQWCA [hLF1-11, Gly Arg Arg Arg Arg Ser Val Gln Trp Cys Ala]”, the “Inhibitory concentration IC50” value was “IC50 = 31 μg/mL” in experiment [1] and “IC50 = 952 μg/mL” in experiment [4]. In experiment [2], this sequence displayed an MIC90 value of 25 to 50 µg/mL. Moreover, the “patients who observed an improvement in the appearance of the nail” value in experiment [3] (after 2 weeks, 3 mg/L, 30 mg/L or combination, 42 patients) came out at 90%. Further, the “patients who observed improvement” value in experiment [3] (after 4-10 weeks of treatment) was 92%. The “patients with complete recovery visible” value in experiment [3] (after 24 weeks) is over 98%.
